The values that follow come from patent US20030229066A1, “Novel heterocyclic urea derivatives and their use as dopamine D3 receptor ligands” (priority 2001, published 2003).

Each structure is given as a SMILES string.

The target of the first test is T1, cloned human dopamine D3 receptors (Homo sapiens, UniProt P35462).
T1 construct: expressed in transfected cells
T1 sequence (P35462 whole entry): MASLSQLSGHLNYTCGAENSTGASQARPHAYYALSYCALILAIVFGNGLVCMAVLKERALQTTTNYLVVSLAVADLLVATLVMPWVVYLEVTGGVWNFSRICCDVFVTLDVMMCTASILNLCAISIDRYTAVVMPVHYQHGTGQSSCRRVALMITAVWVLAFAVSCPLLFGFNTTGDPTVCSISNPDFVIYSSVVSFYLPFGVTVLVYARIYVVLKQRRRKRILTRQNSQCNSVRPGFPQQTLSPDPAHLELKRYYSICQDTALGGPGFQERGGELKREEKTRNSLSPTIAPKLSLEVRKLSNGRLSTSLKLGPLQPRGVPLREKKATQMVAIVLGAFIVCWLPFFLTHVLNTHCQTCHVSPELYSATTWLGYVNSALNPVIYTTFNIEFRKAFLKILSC
The test is described as follows: [N-Methyl-3H]Spiroperidol binding to cloned human dopamine D3 receptors.
Settings: not given
The text has this:
[N-Methyl-^3H]Spiroperidol Binding to Cloned Human Dopamine D3 Receptors
This assay measures the in vitro activity of compounds on cloned human dopamine (D3) receptors and predicts the direct dopamine-blocking properties of putative neuropsychiatric agents at human dopamine D3 receptors.
The D3 gene was isolated from a human striatal cDNA library (Stratagene). The gene was sequenced and sub-cloned into the expression vector RC/RSV (Invitrogen). CHO (Chinese Hamster Ovary) cells were stably transfected with 10 μg of the D3/RSV plasmid using the DOTAP method from Boehringer Mannheim and 72 clones that were G418 resistant were isolated. Using mRNA and binding displacement data a single high expressing clone was identified. This clone was then grown in large batches for the purpose of developing a 96 well format assay.
The cells are harvested into 250 ml centrifuge tubes with 100 volumes of cold phosphate buffered saline (PBS) and spun down (1200×G for 10 min at 4° C.). The medium is removed and 100 ml PBS are added to each centrifuge tube, cells are resuspened and spun down again. The PBS is removed and the final pellet is homogenized in an appropriate volume of 10% DMSO with a polytron on ice at a medium setting.
For Kj determinations: [^3H]NMSP is made up to a concentration of 2.7 nM in buffer 2b, such that when 150 μl is added to each tube a final concentration of 0.4 nM is attained in the 1 ml assay. Samples of total CPM added are taken for each experiment to calculate the total ligand concentration.
5. S(-)-Eticlopride is obtained from Research Biochemicals International (RBI catalog number E-101). A refrigerated stock (good for up to a month) solution of S(-)-eticlopride is made at a concentration of 30 μM in buffer 2b. One hundred microliters are added to 3 wells for the determination of nonspecific binding (this yields a final concentration of 3 μM in the 1 ml assay).
For most assays, a 100 μM stock solution of the test compound is made up in a suitable solvent (usually <0.1% acetic acid) and serially diluted with buffer 2b, such that when 100 μl of drug is combined with the total 1 ml assay, final concentrations ranging from 10^−5-10^−8 M are attained. Characteristically eight concentrations are studied for each assay; however, higher or lower concentrations may be used, depending on the potency of the drug.
The 96-Well Packard Unifilters GF/B are incubated for >1 h at 25° C. in 0.1% polyethylamine (from 3,b). The cold tissue is added last and mixed on a orbital shaker for a few seconds and is then incubated at 37° C. for 30 min in a shaking water bath. The assay is stopped by rapid filtration through Packard Unifilter plates. The filter membranes are then washed with 15 ml of ice-cold 0.05 M Tris buffer. The filters are then dried (˜15 min under a heat lamp or incubated for 15 min in a 60° C. oven) and a bottom seal is applied. Then 40 μl of Packard Microscint 20 scintillation cocktail is added and a permanent topseal (Type P) is applied and heat sealed. The plates are then shaken on an orbital shaker for 1 h and placed in the Packard Topcount and counted for at least 5 minutes for each point.
Specific binding is defined as the difference between total binding and the binding in the presence of 3 μM S-(-)-eticlopride. Total binding is approximately 10% of the total added ligand. Cheng-Prusoff determination (Kj's) are performed using Prism software using a one-site competition curve analysis where the top and the bottom of the non-linear regression are held constant at 0% and 100% percent inhibition. The percent inhibition at each drug concentration is the mean of duplicate determinations.
As to `CC(=O)c1ccc(NC(=O)NCCCCN2C3CCC2CC(c2noc4cc(F)ccc24)C3)cc1` (centres unmarked) [compound 817228], the Ki was 179 nM.
The compound `O=C(NCCCCN1C2CCC1CC(c1noc3cc(F)ccc13)C2)Nc1ccccc1F` (centres unmarked) [compound 817229] came in with a Ki of 365 nM.
As to `O=C(NCCCCN1C2CCC1CC(c1noc3cc(F)ccc13)C2)Nc1ccc(-c2ccccc2)cc1` (centres unmarked) [compound 817230], the Ki was 182 nM.
On the same count and under the same terms, to `O=C(NCCCCN1C2CCC1CC(c1noc3cc(F)ccc13)C2)Nc1cccc(C(F)(F)F)c1` (centres unmarked) [compound 817231] belongs 433 nM; to `Cc1ccc(NC(=O)NCCCCN2C3CCC2CC(c2noc4cc(F)ccc24)C3)cc1` (centres unmarked) [compound 817234], 256 nM.
Still for that read-out and setting: in the case of `O=C(NCCCCN1CCN(c2n[nH]c3ccsc23)CC1)Nc1ccc(C(F)(F)F)cc1` [compound 825154] it was 35.5 nM; in that of `O=C(NCCCCN1CCN(c2n[nH]c3ccsc23)CC1)Nc1ccc(OC(F)(F)F)cc1` [compound 825155], 84.8 nM.
As to `CCOc1ccc(NC(=O)NCCCCN2CCN(c3n[nH]c4ccsc34)CC2)cc1` [compound 825156], the Ki is 63.2 nM.
The same measure, in the same setting: to `O=C(NCCCCN1CCN(c2nn(C(=O)Nc3ccccc3C(F)(F)F)c3ccsc23)CC1)Nc1ccccc1C(F)(F)F` [compound 825160] belongs 202 nM.
Turning to `O=C(NCCCCN1CCN(c2nn(C(=O)Nc3ccc(OC(F)(F)F)cc3)c3ccsc23)CC1)Nc1ccc(OC(F)(F)F)cc1` [compound 825167], the Ki was 374 nM.
Regarding `CCOc1ccc(NC(=O)NCCCCN2CCN(c3nn(C(=O)Nc4ccc(OCC)cc4)c4ccsc34)CC2)cc1` [compound 825168], the Ki was 47.4 nM.
`O=C(NCCCCN1CCN(c2cn(C(=O)Nc3ccc(F)cc3)c3ccsc23)CC1)Nc1ccc(F)cc1` [compound 825170]: the Ki stood at 136 nM.
`O=C(NCCCCN1CCN(c2nn(C(=O)Nc3ccc(F)cc3F)c3ccsc23)CC1)Nc1ccc(F)cc1F` [compound 825171] registered a Ki of 496 nM.
In turn, `O=C(NCCCCN1CCCN(c2csc3cc(F)ccc23)CC1)Nc1ccc(Cl)c(Cl)c1` [compound 829191] returned a Ki of 43 nM.
`Cc1cccc(NC(=O)NCCCCN2CCCN(c3csc4cc(F)ccc34)CC2)c1` [compound 829192]: the Ki stood at 4.03 nM.
`O=C(NCCCCN1CCCN(c2csc3cc(F)ccc23)CC1)Nc1cccc(Cl)c1` [compound 829193] came in with a Ki of 7.86 nM.
Same read-out and setting: in the case of `O=C(NCCCCN1CCCN(c2csc3cc(F)ccc23)CC1)Nc1ccc(C(F)(F)F)cc1` [compound 829195] it was 21.1 nM.
Compound `O=C(NCCCCN1CCCN(c2csc3cc(F)ccc23)CC1)Nc1cccc(Br)c1` [compound 829196] registered a Ki of 10.9 nM.
`O=C(NCCCCN1CCCN(c2csc3cc(F)ccc23)CC1)Nc1ccc(OC(F)(F)F)cc1` [compound 829197] returned a Ki of 34.8 nM.
Take `O=C(NCCCCN1CCCN(c2csc3cc(F)ccc23)CC1)Nc1cc(C(F)(F)F)cc(C(F)(F)F)c1` [compound 829198]: the Ki was determined as 65.6 nM.
Compound `O=C(NCCCCN1CCCN(c2csc3cc(F)ccc23)CC1)Nc1ccc(Cl)c(C(F)(F)F)c1` [compound 829200] displayed a Ki of 47.8 nM.

Still in this test, the particulars now being: Table III; read-out: d3Ki.
In the case of `O=C(NCCCCN1CCN(c2csc3cc(C(F)(F)F)ccc23)CC1)NCc1ccccc1` [compound 815998], the Ki worked out at 22.5 nM.
For the compound `COc1ccccc1NC(=O)NCCCCN1CCN(c2csc3cc(C(F)(F)F)ccc23)CC1` [compound 815999], the Ki amounted to 19 nM.
Consider `O=C(NCCCCN1CCN(c2csc3cc(C(F)(F)F)ccc23)CC1)Nc1ccc(F)cc1` [compound 816004], for which the Ki came out at 6.11 nM.
For the compound `O=C(NCCCCN1CCN(c2csc3cc(C(F)(F)F)ccc23)CC1)Nc1ccc(F)cc1F` [compound 816006], the Ki was 7.42 nM.
As to `Cc1ccccc1NC(=O)NCCCCN1CCN(c2csc3cc(C(F)(F)F)ccc23)CC1` [compound 816007], the Ki stood at 17.5 nM.
In the case of `COc1ccc(NC(=O)NCCCCN2CCN(c3csc4cc(C(F)(F)F)ccc34)CC2)c(OC)c1` [compound 816008], the Ki worked out at 17 nM.
Same read-out and setting: in the case of `O=C(NCCCCN1CCC(c2noc3ccsc23)CC1)NC12CC3CC(CC(C3)C1)C2` [compound 816210] it was 187 nM.
Take `CC(=O)c1ccc(NC(=O)NCCCCN2CCN(c3c(-c4ccccc4)sc4cc(F)ccc34)CC2)cc1` [compound 816226]: the Ki was 184 nM.
On to `O=C(NCCCCN1CCN(c2c(-c3ccccc3)sc3cc(F)ccc23)CC1)NC1CCCCC1` [compound 816232], for which the Ki is 5.94 nM.
On the same count and under the same terms, to `O=C(NCCCCN1CCC(c2noc3ccsc23)CC1)Nc1ccc(F)c([N+](=O)[O-])c1` [compound 816557] belongs 20.7 nM.
For the compound `O=C(NCCCCN1CCC(c2noc3ccsc23)CC1)Nc1ccc(Cl)c([N+](=O)[O-])c1` [compound 816559], the Ki was determined as 13.1 nM.
With `O=C(NCCCCN1CCC(c2noc3ccsc23)CC1)Nc1ccc([N+](=O)[O-])cc1` [compound 816562], the Ki came to 6.99 nM.
In the case of `CCCCOc1ccc(NC(=O)NCCCCN2CCC(c3noc4ccsc34)CC2)cc1` [compound 816564], the Ki turned out to be 55.9 nM.
Regarding `O=C(NCCCCN1CCC(c2noc3ccsc23)CC1)Nc1ccc(Cl)cc1Cl` [compound 816566], the Ki is 95.1 nM.
Still for that read-out and setting: to `COc1ccc(NC(=O)NCCCCN2CCC(c3noc4ccsc34)CC2)c(OC)c1` [compound 816567] belongs 73.8 nM; to `CCOc1ccccc1NC(=O)NCCCCN1CCC(c2noc3ccsc23)CC1` [compound 816764], 85.4 nM.
As to `O=C(NCCCCN1CCC(c2noc3ccsc23)CC1)Nc1c(F)cccc1F` [compound 816766], the Ki came to 42.9 nM.
Regarding `COc1ccc(NC(=O)NCCCCN2CCC(c3noc4ccsc34)CC2)c(OC)c1` [compound 816767], the Ki came out at 60.1 nM.
For the compound `O=C(NCCCCN1CCC(c2noc3ccsc23)CC1)Nc1ccc(Cl)cc1Cl` [compound 816769], the Ki turned out to be 57.8 nM.
`COc1cc(Cl)c(NC(=O)NCCCCN2CCC(c3noc4ccsc34)CC2)c(OC)c1` [compound 816770]: the Ki is 28.2 nM.
In the case of `COc1c(Cl)cccc1NC(=O)NCCCCN1CCC(c2noc3ccsc23)CC1` [compound 816771], the Ki is 74.1 nM.
For the compound `CCOc1ccccc1NC(=O)NCCCCN1CCC(c2noc3ccsc23)CC1` [compound 816876], the Ki was 46.9 nM.
`O=C(NCCCCN1CCC(c2noc3ccsc23)CC1)Nc1c(F)cccc1F` [compound 816878]: the Ki turned out to be 33.8 nM.
Turning to `COc1ccc(NC(=O)NCCCCN2CCC(c3noc4ccsc34)CC2)c(OC)c1` [compound 816879], the Ki turned out to be 47 nM.
With `O=C(NCCCCN1CCC(c2noc3ccsc23)CC1)Nc1cc(C(F)(F)F)cc(C(F)(F)F)c1` [compound 816881], the Ki came out at 23.8 nM.
In the case of `COc1cc(Cl)c(NC(=O)NCCCCN2CCC(c3noc4ccsc34)CC2)c(OC)c1` [compound 816882], the Ki stood at 58.6 nM.
As for `COc1c(Cl)cccc1NC(=O)NCCCCN1CCC(c2noc3ccsc23)CC1` [compound 816883], the Ki worked out at 35.5 nM.
With `O=C(NCCCCN1CCC(c2noc3ccsc23)CC1)NCc1ccc(Cl)cc1Cl` [compound 816968], the Ki is 24.2 nM.
In the case of `COc1ccc(NC(=O)NCCCCN2CCC(c3noc4ccsc34)CC2)c(OC)c1` [compound 818310], the Ki is 133 nM.
